Non-standard residues stand in square brackets, D forms with d. Residues, ends and D or L forms follow the SMILES beside them. No end group written: not given here.

Consider four compounds from patent US7432341B2, “Cytokine receptor modulators and method of modulating cytokine receptor activity” (Valo HSJ, Limited Partnership, priority 2002, dated 2008).

The target in experiment [1] is T1, IL-1R/IL-1RacP (Homo sapiens, UniProt Q9NPH3).
T1 construct: endogenous in cells; host or cells: A549 carcinoma cells
T1 sequence (Q9NPH3 21-570): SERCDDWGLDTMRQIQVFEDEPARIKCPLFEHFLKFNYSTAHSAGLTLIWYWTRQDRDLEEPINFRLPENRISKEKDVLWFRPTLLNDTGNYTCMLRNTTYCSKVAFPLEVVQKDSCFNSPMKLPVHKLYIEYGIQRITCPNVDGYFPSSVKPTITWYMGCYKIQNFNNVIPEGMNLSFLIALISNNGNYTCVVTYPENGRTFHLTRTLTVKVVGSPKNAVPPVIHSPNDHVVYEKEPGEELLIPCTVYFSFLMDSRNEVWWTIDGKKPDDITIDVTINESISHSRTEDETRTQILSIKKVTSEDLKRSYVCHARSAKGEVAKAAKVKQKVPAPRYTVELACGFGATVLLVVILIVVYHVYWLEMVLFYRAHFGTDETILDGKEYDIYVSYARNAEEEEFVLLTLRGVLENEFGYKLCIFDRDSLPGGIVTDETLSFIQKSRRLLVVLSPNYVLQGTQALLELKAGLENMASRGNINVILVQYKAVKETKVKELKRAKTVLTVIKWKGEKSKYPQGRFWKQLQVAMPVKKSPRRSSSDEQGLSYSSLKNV
The experiment is described as follows: IL-1 induced proliferation in A549 carcinoma cells, tritiated thymidine method. Type of experiment: cell-based. To be noted: IL-1 10 ng/ml or 1 ng/ml; peptides 10^−6 to 10^−4 M. The procedure: FIG. 9 graphically illustrates results of proliferation assays in carcinome A549 cells in presence of IL-1 (10 ng/ml-Panel A) (1 ng/ml-Panel B) and various concentrations of the peptides API-101, API-103 and API-106;
The proliferation effect of IL-1 was measured in A549 carcinoma cells in the presence of peptides API101; API103 and API106 and of IL-1 (10 ng/ml-Panel A) and (1 ng/ml-Panel B) pursuant to the incorporated tritiated thymidine method. The cells were preincubated at 37° C. with the different peptides at different concentrations, namely 10^−6, 10^−5 and 10^−4 M. They were then incubated with IL-1 (10 ng/ml or 1 ng/ml) for 24 hours. The cells were then contacted with ^3H-Thymidine for 24 hours, washed and lysed. The radioactivity was then measured with a scintillation counter. The sequences of the peptides antagonists used are as follows: API-101 […], API-103 […]; and API-106 […]. They generally correspond to the subfragment peptides having sequences SEQ ID NO: 50, NO: 52 and NO: 53, respectively except where the subfragment peptide contained an isoleucine. In that case, this isoleucine was replaced by a conservative leucine in the synthesized peptide for economic reasons.

The test system of experiment [2] is VEGFR2 (Flk-1). The experiment is described as follows: VEGF induced proliferation in microvascular endothelial cells, incorporated tritiated thymidine method. It counts as cell-based, porcine. To be noted: VEGF 2 ng/ml; peptides 10 μM (FIG. 2 panel A). On the procedure: (§1) FIG. 2 graphically illustrates in panel A results of proliferation assay in porcine microvascular endothelial cells in presence of VEGF (2 ng/ml) and peptides 2.1, 2.2, 2.3 (10 μM). In panel B are graphically illustrated dose-response of peptides in pulmonary arterial endothelial cells (PAEC) in presence of VEGF (2 ng/ml) and increasing doses of peptides. In panel C is graphically illustrated the effect of intravitreally injected peptides (10 μM [estimated final intraocular concentration]) of the present invention on neovascularization in rat retinas exposed to hyperoxic conditions;
To determine the efficient and non cytotoxic concentration of VEGF to use in the assay, a dose-response curve of VEGF was generated in two types of cells, namely microvascular endothelial cells and pulmonary artery endothelial cells (PAEC) that had been transfected with the Flk-1 gene. The proliferation was then measured in those two types of cells in the presence of peptides 2.1, 2.2 and 2.3 and of VEGF (2 ng/ml) pursuant to the incorporated tritiated thymidine method. The cells were preincubated at 37° C. with the different peptides at different concentrations. They were incubated with VEGF (2 ng/ml) for 24 hours. The cells were contacted with ^3H-Thymidine for 24 hours, washed and lysed. The radioactivity was measured with a scintillation counter.

Experiment [3] addresses T2, VEGFR (Flk-1) (Rattus norvegicus, UniProt O08775).
T2 construct: from tissue; host or cells: rat pup retina (in vivo, intravitreal injection)
The experiment is described as follows: Ischemic retinopathy model, neovascularization in rat retinas exposed to hyperoxic conditions. To be noted: rat pups, 80% O2 then normoxia; peptides 10 μM final concentration in the vitreous body. It counts as in vivo. The procedure:
as §1
The efficiency of the selected peptides was verified in vivo in a ischemic retinopathy model, a phenomena highly dependant on VEGF activation. Rat pups were exposed to 80% O2 followed by a period of normoxia (21% O2). The peptides were injected at a final concentration of 10 μM in the vitreous body. The retinas were then retrieved, colored with the ADPase method and mounted on slides. Photographs of the retinas were taken with a microscope linked to a computer and the vascular density was evaluated with the Image prosoftware.

Experiment [4] relates to IL-1R/IL-1RacP. The experiment is described as follows: Vasomotricity of piglet pial vessels, IL-1β induced vasodilatation. Conditions: IL-1β 75 ng/ml; U46619 10^−7M preconstriction; peptide 10^−10 to 10^−5 M; data not shown; read-out: IC50, prevention of vasodilation induced by IL-1β in piglet pial vessels. The procedure: In another experiment, vasomotricity variation of piglets pial vessels was studied to further evaluate the particular effect of cytokine receptor subfragments on the vasodilatator effect of IL-1β. Brains were dissected from Yorkshire piglets. Slices of brain exposing the pial vessels were pinned to a wax base of a 20 ml bath containing Krebs buffer (pH 7.4) equilibrated with 95% O2-5% CO2 and maintained at 37° C. Microvessels were visualized and recorded using a video camera mounted on a dissecting microscope. Vascular diameter was measured using a digital image analyzer and the images were recorded before and after topical application of constricting agent U46619 at 10^−7M. After stabilization of the vasomotricity, IL-1β was added until stabilization of vasodilatation. Peptides were then injected at different concentrations from 10^−10 to 10^−5M. Reversal of vasodilatation (i.e. vasoconstriction) was visualized and measured as previously mentioned. IL-1β induced vasodilatation in the microvasculature of the piglet brain was observed. […] The range of concentrations of the peptide administered was from 10^−10 to 10^−5 M.

T2 sequence (O08775 20-1343): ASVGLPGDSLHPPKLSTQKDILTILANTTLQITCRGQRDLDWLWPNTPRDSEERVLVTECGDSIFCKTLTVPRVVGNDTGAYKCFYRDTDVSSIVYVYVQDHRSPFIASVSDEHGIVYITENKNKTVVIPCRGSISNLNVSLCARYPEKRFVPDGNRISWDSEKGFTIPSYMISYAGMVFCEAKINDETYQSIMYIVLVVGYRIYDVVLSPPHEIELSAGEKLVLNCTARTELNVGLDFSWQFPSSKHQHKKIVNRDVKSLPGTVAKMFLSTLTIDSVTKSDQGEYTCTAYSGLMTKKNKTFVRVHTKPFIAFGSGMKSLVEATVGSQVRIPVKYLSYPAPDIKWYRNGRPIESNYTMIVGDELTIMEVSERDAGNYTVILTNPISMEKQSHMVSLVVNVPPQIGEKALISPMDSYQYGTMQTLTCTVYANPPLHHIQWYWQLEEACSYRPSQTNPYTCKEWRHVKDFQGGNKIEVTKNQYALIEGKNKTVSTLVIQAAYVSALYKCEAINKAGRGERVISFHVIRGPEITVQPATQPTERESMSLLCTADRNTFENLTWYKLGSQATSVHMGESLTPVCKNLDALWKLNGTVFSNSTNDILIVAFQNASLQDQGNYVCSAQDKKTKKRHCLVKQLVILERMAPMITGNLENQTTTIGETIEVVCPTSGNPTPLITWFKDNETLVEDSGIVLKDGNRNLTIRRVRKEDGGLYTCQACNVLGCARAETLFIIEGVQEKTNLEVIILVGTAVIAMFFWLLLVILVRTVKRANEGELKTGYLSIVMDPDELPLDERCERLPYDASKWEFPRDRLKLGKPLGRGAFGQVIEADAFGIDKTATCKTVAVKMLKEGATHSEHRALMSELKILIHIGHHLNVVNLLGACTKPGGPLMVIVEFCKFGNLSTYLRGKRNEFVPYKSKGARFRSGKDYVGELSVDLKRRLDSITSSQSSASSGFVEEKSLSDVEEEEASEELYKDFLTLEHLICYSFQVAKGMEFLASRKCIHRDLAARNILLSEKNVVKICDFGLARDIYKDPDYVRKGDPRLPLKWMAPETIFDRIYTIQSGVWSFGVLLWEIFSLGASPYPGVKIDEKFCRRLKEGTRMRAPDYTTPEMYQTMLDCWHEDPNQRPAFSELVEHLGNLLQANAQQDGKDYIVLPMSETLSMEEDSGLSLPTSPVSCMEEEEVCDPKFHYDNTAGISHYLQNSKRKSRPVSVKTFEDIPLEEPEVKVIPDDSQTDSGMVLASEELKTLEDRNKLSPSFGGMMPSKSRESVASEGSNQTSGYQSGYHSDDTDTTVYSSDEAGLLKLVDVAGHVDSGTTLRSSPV

As to MKLPVHKLY [API-103], the concentration giving a half-maximal response (EC50) in experiment [1] amounted to 1000 nM.

Turning to `CC(C)C[C@@H](NC(=O)[C@@H](CCCNC(=N)N)NC(=O)[C@H](NC(=O)[C@@H](CCCNC(=N)N)NC(=O)[C@@H](CCC(=O)O)NC(=O)CNC(=O)[C@H](NC(=O)[C@H](NC(=O)[C@@H](C)NC(=O)[C@H](N)CCC(=O)O)[C@H](C)O)C(C)C)C(C)C)C(=O)O` [2.2] (H-[dE][dA][dT][dV]G[dE][dR][dV][dR][dL]-OH; N-terminus and C-terminus assumed), the “VEGF induced proliferation in microvascular endothelial cells” value in experiment [2] is “completely abrogated”. Moreover, the “induced neovascularization in vivo (vascular density of retina)” value in experiment [3] was “most effective inhibitor of neovascularization”.

In turn, APRYTVELA [API-101] registered an EC50 in experiment [1] of 1000 nM. For the same compound, the IC50 in experiment [4] was 182 nM.

Take `CC[C@@H](C)[C@@H](NC(=O)[C@@H](CCC(=O)O)NC(=O)[C@@H](CC(C)C)NC(=O)[C@@H](CC(N)=O)NC(=O)[C@H](NC(=O)[C@@H](CCCCN)NC(=O)[C@@H](CCC(=O)O)NC(=O)[C@@H](CCC(N)=O)NC(=O)[C@@H](C)N)[C@H](C)O)C(=O)N[C@@H](C(=O)N[C@@H](C(=O)N[C@H](CC(C)C)C(=O)N[C@@H](C(=O)NCC(=O)O)C(C)C)[C@H](C)CC)[C@H](C)CC` [2.1] (H-[dA][dQ][dE][dK][dT][dN][dL][dE][dI][dI][dI][dL][dV]G-OH; N-terminus and C-terminus assumed): in experiment [2], the “VEGF induced proliferation in microvascular endothelial cells” value is recorded as “completely abrogated”.

As a reminder, the EC50 is the concentration needed to bring the measured effect to its halfway point. Usually IC50 stands for the concentration at which inhibition is half-maximal.
